Consider one molecule from PMC8297771 (PLoS Pathogens, 2021).

A word on the IC50: it is the midpoint of a concentration-inhibition curve.

Data set [1] deals with Ral-resistant (1556_1) clinical isolate. Put plainly: In vitro anti-viral assay in human PBMCs (RT activity readout). The class given is cell-based, HIV-1. The procedure:
(§1) For the assay with human PBMCs, PHA stimulated cells from at least two pooled healthy were infected with HIV-1 strains in 96-well plates. Test drug dilutions, which were prepared at a 2X concentration in microtiter tubes and 100 μL of each concentration (nine total concentrations), were placed in appropriate wells using the standard format. 50 μL of a predetermined dilution of virus stock was placed in each test well (final MOI ≅ 0.1). The PBMC cultures were maintained for 7 days following infection at 37 °C, 5% CO2. After this period, cell-free supernatant samples were collected for analysis of reverse transcriptase (RT) activity. All assays were conducted in triplicates. For RT assay, a microtiter plate-based reverse transcriptase (RT) reaction was utilized (Buckheit et al., AIDS Research and Human Retroviruses 7:295–302, 1991). Tritiated thymidine triphosphate (^3H-TTP, 80 Ci/mmol, NEN) is received in 1:1 dH2O: Ethanol at 1 mCi/mL. Poly rA:oligo dT template:primer (GE Healthcare) was prepared as a stock solution by combining 150 μL poly rA (20 mg/mL) with 0.5 mL oligo dT (20 units/mL) and 5.35 mL sterile dH2O followed by aliquoting (1.0 mL) and storage at—20°C. The RT reaction buffer was prepared fresh on a daily basis and consisted of 125 μL 1.0 M EGTA, 125 μL dH2O, 125 μL 20% Triton X100, 50 μL 1.0 M Tris (pH 7.4), 50 μL 1.0 M DTT, and 40 μL 1.0 M MgCl2. The final reaction mixture was prepared by combining 1 part ^3H-TTP, 4 parts dH2O, 2.5 parts poly rA:oligo dT stock and 2.5 parts reaction buffer. Ten microliters of this reaction mixture were placed in a round bottom microtiter plate and 15 μL of virus containing supernatant is added and mixed. The plate was incubated at 37°C for 60 mins. Following incubation, the reaction volume was spotted onto DE81 filter-mats (Wallac), washed 5 times for 5 mins each in a 5% sodium phosphate buffer or 2X SSC (Life Technologies). Next they were washed 2 times for 1 min each in distilled water, 2 times for 1 min each in 70% ethanol, and then dried. Incorporated radioactivity (counts per min, CPM) was quantified using standard liquid scintillation techniques. These PBMC analysis was conducted by fee to service through Southern Research Institute (Frederick, MD, USA). The IC50 were analyzed using GraphPad Prism (Version 9) and presented as means ± S.D. of the triplicates.

The subject of data set [2] is Ral-resistant (4736_2) clinical isolate. The description is as above. Format: cell-based, HIV-1. Particulars: human PBMCs, Ral-resistant (4736_2). The procedure:
as §1

For data set [3], the system named is Ral-resistant (4736_4) clinical isolate. The data set is described as above. Particulars: human PBMCs, Ral-resistant (4736_4). Format: cell-based, HIV-1. The procedure:
as §1

Data set [4] concerns Ral-resistant (8070_1) clinical isolate. The data set is described as above. The class given is cell-based, HIV-1. The procedure: as §1
Data set [5] deals with Ral-resistant (8070_2) clinical isolate. The data set is described as above. The class given is cell-based, HIV-1. The procedure:
as §1

The subject of data set [6] is HIV-1 GFP vector produced from treated 293T cells, transduced into Jurkat cells. Put plainly: HIV-1 inhibition in producing cells (late stage). Format: cell-based. Particulars: 60 nM in 293T producing cells; GFP by FACS in Jurkat cells. The procedure:
To test for STP0404’s inhibitory effects during the late stage of HIV-1 life cycle such as the maturation step, we employed the “producing cells” setup. In T75 tissue culture flasks, 293T cells were pre-treated with and without STP0404 (0 and 60 nM) for 2 hrs prior to transfection with pD3-HIV (13 μg) and pVSV-g (6 μg), using 0.3 mg/ml polyethylenimine. After 24 hrs incubation at 37°C, the supernatant was removed and replaced with fresh media with and without STP0404 (0 and 60 nM). 48 hrs later, D3-HIV vector from each treatment group was concentrated from the collected supernatant via ultracentrifugation (22,000 rpm for 2 hrs). Following p24 quantification, using 96-well plates, similar amount of respective D3-HIV vector was used to transduce Jurkat cells in triplicates for 48 hrs. The cells were harvested and fixed with 3.7% formaldehyde before being analyzed for GFP expression using FACS (Miltenyi Biotec, VYB). Separately, the “infecting cells” setup was used to investigate the inhibitory effects of STP0404 against the early stages of HIV-1 life cycle such as the integration and transcription steps. […] All data were analyzed using GraphPad Prism (Version 9). Unpaired t tests were performed to determine the significance of the readings in respective experimental set up relative to the untreated controls. […]
In general terms: Flow cytometry measures light scatter and fluorescence of single cells or particles in a stream.

The subject of data set [7] is Salmonella typhimurium (TA100, TA1535, TA98, TA1537) and Escherichia coli (WP2uvrA). As to the kind of experiment: Bacterial reverse mutation assay (GLP). The following applies: five bacterial strains. The procedure: Bacterial reverse mutation assay (Study no. YL18407). The bacterial reverse mutation assay of STP0404 was performed in two conditions (with or without metabolic activation) for the dose range-finding test (doses of STP0404rangingfrom 2.29 to 5,000μg/plate) and the main test (doses of STP0404 ranging from 19.5 to 5,000 μg/plate) in comparison with negative control (DMSO) and active controls (sodium azide, 2-(2-furyl)-3-(5-nitro-2-furyl) acrylamide, 2-aminoanthracene, 9-aminoacridine hydrochloride). Salmonella typhimurium (TA100, TA1535) and Escherichia coli (WP2uvrA) were used for detection of base-pair substitutions. Salmonella typhimurium (TA98, TA1537) was used for detection of frameshift mutations. Chromosomal Aberration Test of STP0404 in Cultured Mammalian Cells (Study no. YL18408). Presence/absence of genotoxicity of STP0404 was determined using chromosomal aberration test carried out in CHL/IU cells. The test comprised a dose range-finding test and a main test. Micronucleus Study of STP0404 by oral administration in Rats (Study no. YL18409). STP0404 was administered orally to SD rats (3/group in preliminary test and 6/group in the main test) at dose levels of 500, 1000 and 2000 mg/kg/day once daily for 2 days in a two-test study (preliminary test and main test) to investigate the genotoxicity profile of STP0404. […] Bone marrow smear slides were evaluated (INA Research, Japan).

Setting [8] is: Human immunodeficiency virus 1, PBMC.
The mark [9] stands for this setting: Human immunodeficiency virus 1, PBMC, read-out: IC50.

For `Cc1nc2c(c(C)c(C)n2Cc2cnn(C)c2)c(-c2ccc(Cl)cc2)c1[C@H](OC(C)(C)C)C(=O)O` [STP0404], the “TI (TC50 / IC50)” value in data set [1] is >125,000; in data set [2], >330,000; in data set [3], >250,000; in data set [4] (human PBMCs, Ral-resistant (8070_1)), >166,000; in data set [5], >43,400. The IC50 came to 0.08 ± 0.04 nM in data set [1] (setting [8]); 0.03 ± 0.04 nM in data set [2] (setting [9]); 0.04 ± 0.06 nM in data set [3] (setting [9]); 0.06 ± 0.07 nM in data set [4] (setting [8]); 0.23 ± 0.39 nM in data set [5] (setting [8]). For the same molecule, the “transduction efficiency, producing cells” value in data set [6] is “significantly reduced transduction efficiency”. In addition, the gene mutation-inducing potential result in data set [7] is given as “lacked”.
